Assay results taken from the NIST ThermoML archive (doi:10.1021/je301283e).
Numbers after ± are expanded uncertainties.

Conditions: Liquid, Drop volume

CCCCCCC [heptane] + O=C=O
interfacial tension [mN/m]
Conditions	313.15 K	333.15 K	353.15 K	373.15 K	393.15 K
340 kPa	16.27 ± 0.25	14.24 ± 0.2	12.36 ± 0.16	11 ± 0.14	9.62 ± 0.12
690 kPa	15.56 ± 0.25	13.68 ± 0.19	11.92 ± 0.16	10.64 ± 0.14	9.29 ± 0.12
1030 kPa	14.88 ± 0.25	13.1 ± 0.19	11.46 ± 0.15	10.29 ± 0.14	8.99 ± 0.12
1380 kPa	14.23 ± 0.25	12.54 ± 0.19	10.99 ± 0.15	9.87 ± 0.13	8.73 ± 0.12
1720 kPa	13.42 ± 0.24	12 ± 0.19	10.6 ± 0.15	9.54 ± 0.13	8.45 ± 0.11
2070 kPa	12.71 ± 0.24	11.38 ± 0.19	10.13 ± 0.15	9.27 ± 0.13	8.23 ± 0.11
2410 kPa	12.05 ± 0.24	10.8 ± 0.19	9.78 ± 0.15	8.84 ± 0.13	7.93 ± 0.11
2760 kPa	11.17 ± 0.24	10.2 ± 0.18	9.24 ± 0.15	8.45 ± 0.13	7.63 ± 0.11
3100 kPa	10.54 ± 0.24	9.62 ± 0.18	8.71 ± 0.15	8.1 ± 0.13	7.32 ± 0.11
3450 kPa	9.76 ± 0.24	8.92 ± 0.18	8.19 ± 0.14	7.67 ± 0.13	7.1 ± 0.11
3800 kPa	9.04 ± 0.24	8.32 ± 0.18	7.86 ± 0.14	7.35 ± 0.13	6.84 ± 0.11
4140 kPa	8.36 ± 0.23	7.76 ± 0.18	7.34 ± 0.14	7 ± 0.13	6.61 ± 0.11
4480 kPa	7.47 ± 0.23	7.23 ± 0.18	6.95 ± 0.14	6.68 ± 0.12	6.25 ± 0.11
4830 kPa	6.74 ± 0.23	6.66 ± 0.18	6.5 ± 0.14	6.35 ± 0.12	6 ± 0.11
5170 kPa	5.87 ± 0.23	6.1 ± 0.18	6.11 ± 0.14	5.95 ± 0.12	5.74 ± 0.11
5510 kPa	5.1 ± 0.23	5.58 ± 0.17	5.83 ± 0.14	5.68 ± 0.12	5.44 ± 0.1
5860 kPa	4.23 ± 0.23	5.11 ± 0.17	5.46 ± 0.14	5.41 ± 0.12	5.24 ± 0.1
6200 kPa	3.59 ± 0.23	4.61 ± 0.17	4.95 ± 0.14	5.08 ± 0.12	4.96 ± 0.1
6550 kPa	3.07 ± 0.23	4.04 ± 0.17	4.41 ± 0.14	4.69 ± 0.12	4.68 ± 0.1
6890 kPa	2.39 ± 0.23	3.52 ± 0.17	4.01 ± 0.13	4.38 ± 0.12	4.37 ± 0.1
7240 kPa	–	3.02 ± 0.17	3.61 ± 0.13	3.94 ± 0.12	4.1 ± 0.1
7580 kPa	–	2.4 ± 0.17	3.22 ± 0.13	3.67 ± 0.12	3.81 ± 0.1

CCCCCCCCCCCCCCCC [hexadecane] + O=C=O
interfacial tension [mN/m]
Conditions	313.15 K	333.15 K	353.15 K	373.15 K	393.15 K
340 kPa	22.39 ± 0.27	20.59 ± 0.23	19.15 ± 0.19	17.84 ± 0.18	16.46 ± 0.15
690 kPa	21.67 ± 0.27	20.1 ± 0.23	18.65 ± 0.19	17.27 ± 0.17	16.12 ± 0.14
1030 kPa	20.89 ± 0.26	19.32 ± 0.23	18.15 ± 0.19	16.85 ± 0.17	15.79 ± 0.14
1380 kPa	20.29 ± 0.26	18.89 ± 0.22	17.69 ± 0.19	16.47 ± 0.17	15.54 ± 0.14
1720 kPa	19.42 ± 0.26	18.21 ± 0.22	17.21 ± 0.19	15.99 ± 0.17	15.11 ± 0.14
2070 kPa	18.39 ± 0.26	17.8 ± 0.22	16.74 ± 0.19	15.67 ± 0.17	14.81 ± 0.14
2410 kPa	17.81 ± 0.25	17.01 ± 0.22	16.21 ± 0.18	15.29 ± 0.17	14.49 ± 0.14
2760 kPa	17.21 ± 0.25	16.38 ± 0.22	15.71 ± 0.18	14.94 ± 0.17	14.18 ± 0.14
3100 kPa	16.29 ± 0.25	15.94 ± 0.22	15.31 ± 0.18	14.48 ± 0.16	13.77 ± 0.13
3450 kPa	15.49 ± 0.25	15.36 ± 0.21	14.82 ± 0.18	14.21 ± 0.16	13.52 ± 0.13
3800 kPa	14.85 ± 0.25	14.8 ± 0.21	14.37 ± 0.18	13.89 ± 0.16	13.2 ± 0.13
4140 kPa	13.94 ± 0.25	14.23 ± 0.21	13.88 ± 0.18	13.49 ± 0.16	12.84 ± 0.13
4480 kPa	13.36 ± 0.24	13.77 ± 0.21	13.31 ± 0.18	13 ± 0.16	12.59 ± 0.13
4830 kPa	12.38 ± 0.24	12.89 ± 0.21	12.89 ± 0.17	12.58 ± 0.16	12.3 ± 0.13
5170 kPa	11.9 ± 0.24	12.49 ± 0.21	12.44 ± 0.17	12.15 ± 0.16	12.06 ± 0.13
5510 kPa	11.18 ± 0.24	11.68 ± 0.21	11.81 ± 0.17	11.89 ± 0.16	11.63 ± 0.13
5860 kPa	10.46 ± 0.24	11.11 ± 0.2	11.48 ± 0.17	11.47 ± 0.15	11.41 ± 0.13
6200 kPa	9.57 ± 0.24	10.36 ± 0.2	11.15 ± 0.17	11.11 ± 0.15	11.18 ± 0.12
6550 kPa	8.63 ± 0.24	9.68 ± 0.2	10.74 ± 0.17	10.79 ± 0.15	10.81 ± 0.12
6890 kPa	7.78 ± 0.23	9.16 ± 0.2	10.05 ± 0.17	10.28 ± 0.15	10.56 ± 0.12
7240 kPa	7.22 ± 0.23	8.82 ± 0.2	9.74 ± 0.17	9.9 ± 0.15	10.19 ± 0.12
7580 kPa	6.26 ± 0.23	8.16 ± 0.2	9.44 ± 0.17	9.57 ± 0.15	9.82 ± 0.12
7930 kPa	5.48 ± 0.23	7.52 ± 0.2	8.98 ± 0.16	9.35 ± 0.15	9.52 ± 0.12
8270 kPa	4.79 ± 0.23	6.86 ± 0.2	8.35 ± 0.16	8.84 ± 0.15	9.23 ± 0.12
8620 kPa	4.24 ± 0.23	6.32 ± 0.19	7.67 ± 0.16	8.27 ± 0.15	8.84 ± 0.12
8960 kPa	3.49 ± 0.23	5.81 ± 0.19	7.42 ± 0.16	7.87 ± 0.14	8.58 ± 0.12
9310 kPa	2.7 ± 0.23	5.19 ± 0.19	6.95 ± 0.16	7.65 ± 0.14	8.16 ± 0.11
9650 kPa	–	4.57 ± 0.19	6.06 ± 0.16	7.15 ± 0.14	7.92 ± 0.11
10000 kPa	–	4 ± 0.19	5.78 ± 0.16	6.74 ± 0.14	7.61 ± 0.11
10340 kPa	–	3.45 ± 0.19	5.11 ± 0.16	6.41 ± 0.14	7.27 ± 0.11
10690 kPa	–	2.94 ± 0.19	4.84 ± 0.16	6.16 ± 0.14	6.99 ± 0.11
11030 kPa	–	2.38 ± 0.19	4.48 ± 0.15	5.64 ± 0.14	6.75 ± 0.11
11380 kPa	–	–	4.04 ± 0.15	5.28 ± 0.14	6.42 ± 0.11
